Values quoted from earlier work as cited in US11576862B2, “Methods and compositions for preparing a silk microsphere” (Trustees of Tufts College, priority 2012, dated 2023).
Counter-ions that a name gives are not always drawn.

- water solubility: 50 mg/mL
Structure (SMILES): CC12CC3CC(C)(C1)CC(N)(C3)C2 [Memantine hydrochloride, 3,5-dimethyltricyclo[3.3.1.1]decan-1amine]
